Laboratory results: patent US9771366B2, “Substituted tetrahydropyrido[3′,2′:4,5]pyrrolo[1,2-a]pyrazine-2-carboxamides as RSK inhibitors” (Phoenix Molecular Designs, priority 2016, dated 2017)

How the values were obtained:
[1] = target: RSK2 (Homo sapiens (Human), UniProt P51812); experiment: Radioisotope kinase assay (SignalChem), RSK2; type: biochemical
Description: The assay conditions for the RSK2 kinase target were optimized to yield acceptable enzymatic activity. In addition, the assays were optimized to give high signal-to-noise ratio.
Radioisotope assays (SignalChem) were performed for the evaluation of the kinase target profiling and all assays were performed in a designated radioactive working area. The kinase targets were RSK1, RSK2, RSK3, RSK4 and MK2.
The assay was initiated by the addition of ^33P-ATP and the reaction mixture incubated at 30° C. for 15 minutes. After the incubation period, the assay was terminated by spotting 10 μL of the reaction mixture onto Multiscreen phosphocellulose P81 plate. The Multiscreen phosphocellulose P81 plate was washed 3 times for approximately 15 minutes each in a 1% phosphoric acid solution. The radioactivity on the P81 plate was counted in the presence of scintillation fluid in a Trilux scintillation counter.
(§1) Blank controls were set up for each target kinase which included all the assay components except the addition of the appropriate substrate (which was replaced with equal volume of assay dilution buffer). The corrected activity for each target kinase was determined by removing the blank control value.

[2] = target: RSK1 (Homo sapiens (Human), UniProt Q15418); experiment: Radioisotope kinase assay (SignalChem), RSK1; type: biochemical
RSK1, sequence (Q15418 whole entry): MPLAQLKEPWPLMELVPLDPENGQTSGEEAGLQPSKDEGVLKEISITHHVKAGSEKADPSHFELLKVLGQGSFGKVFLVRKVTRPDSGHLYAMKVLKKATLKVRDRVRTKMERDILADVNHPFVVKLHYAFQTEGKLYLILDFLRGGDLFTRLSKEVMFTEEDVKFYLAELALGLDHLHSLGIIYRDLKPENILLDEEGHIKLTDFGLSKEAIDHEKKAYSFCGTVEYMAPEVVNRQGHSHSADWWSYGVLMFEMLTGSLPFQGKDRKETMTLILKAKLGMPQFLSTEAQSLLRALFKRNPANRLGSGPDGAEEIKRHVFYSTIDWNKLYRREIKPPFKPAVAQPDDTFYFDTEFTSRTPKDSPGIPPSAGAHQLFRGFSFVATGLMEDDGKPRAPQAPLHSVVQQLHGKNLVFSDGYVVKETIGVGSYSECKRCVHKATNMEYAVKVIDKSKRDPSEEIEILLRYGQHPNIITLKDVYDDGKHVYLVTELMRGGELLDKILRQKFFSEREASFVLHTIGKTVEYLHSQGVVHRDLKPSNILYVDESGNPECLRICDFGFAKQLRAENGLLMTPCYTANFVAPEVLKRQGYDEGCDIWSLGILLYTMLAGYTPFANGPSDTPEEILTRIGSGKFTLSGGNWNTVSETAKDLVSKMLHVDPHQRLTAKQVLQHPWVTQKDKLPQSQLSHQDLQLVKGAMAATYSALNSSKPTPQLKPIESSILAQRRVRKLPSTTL
Description: (§2) Radioisotope assays (SignalChem) were performed for the evaluation of the kinase target profiling and all assays were performed in a designated radioactive working area. The kinase targets were RSK1, RSK2, RSK3, RSK4 and MK2. The kinase assays (in duplicate) were performed at 30° C. for 15 minutes in a final volume of 25 μL according to the following assay reaction recipe: • Component 1: 5 μL of diluted active kinase target (100 ng per reaction) • Component 2: 5 μL of peptide substrate (0.5 μg per reaction) (for RSK1, RSK2, RSK3 and RSK4, RSK S6K substrate was used; for MK2, HSP27tide was used) • Component 3: 5 μL of kinase assay buffer • Component 4: 5 μL of compound described herein (various concentrations: 0, 0.1, 1, 10, 100 or 1000 nM or 1, 3, 10, 30, 100, 300 nM) • Component 5: 5 μL of ^33P-ATP (5 μM stock solution, 0.8 μCi; […])
(§3) The assay was initiated by the addition of ^33P-ATP and the reaction mixture incubated at 30° C. for 15 minutes. […] The radioactivity on the P81 plate was counted in the presence of scintillation fluid in a Trilux scintillation counter.
as §1

[3] = target: RSK3 (Homo sapiens (Human), UniProt Q15349); experiment: Radioisotope kinase assay (SignalChem), RSK3; type: biochemical
RSK3, sequence (Q15349 whole entry): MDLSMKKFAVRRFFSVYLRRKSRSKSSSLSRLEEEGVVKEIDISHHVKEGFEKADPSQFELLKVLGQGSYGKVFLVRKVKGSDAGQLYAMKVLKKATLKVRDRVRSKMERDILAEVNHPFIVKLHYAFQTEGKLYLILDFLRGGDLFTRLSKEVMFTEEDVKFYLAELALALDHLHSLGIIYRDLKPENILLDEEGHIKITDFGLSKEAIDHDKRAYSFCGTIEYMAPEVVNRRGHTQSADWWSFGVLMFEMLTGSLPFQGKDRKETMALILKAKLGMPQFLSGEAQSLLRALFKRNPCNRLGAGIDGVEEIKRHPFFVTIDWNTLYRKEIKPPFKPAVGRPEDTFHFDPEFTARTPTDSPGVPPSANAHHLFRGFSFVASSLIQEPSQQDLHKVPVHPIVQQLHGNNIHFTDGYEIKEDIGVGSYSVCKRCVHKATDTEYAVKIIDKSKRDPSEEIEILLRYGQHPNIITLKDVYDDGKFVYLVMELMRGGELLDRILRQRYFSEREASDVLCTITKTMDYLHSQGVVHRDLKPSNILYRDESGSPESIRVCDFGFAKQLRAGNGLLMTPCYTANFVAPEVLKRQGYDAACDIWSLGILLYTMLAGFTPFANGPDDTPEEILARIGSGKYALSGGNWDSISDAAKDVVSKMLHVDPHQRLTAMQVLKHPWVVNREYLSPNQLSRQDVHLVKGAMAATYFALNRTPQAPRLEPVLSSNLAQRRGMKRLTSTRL
Description: as §2, §3, §1

[4] = target: RSK4 (Homo sapiens (Human), UniProt Q9UK32); experiment: Radioisotope kinase assay (SignalChem), RSK4; type: biochemical
RSK4, sequence (Q9UK32 whole entry): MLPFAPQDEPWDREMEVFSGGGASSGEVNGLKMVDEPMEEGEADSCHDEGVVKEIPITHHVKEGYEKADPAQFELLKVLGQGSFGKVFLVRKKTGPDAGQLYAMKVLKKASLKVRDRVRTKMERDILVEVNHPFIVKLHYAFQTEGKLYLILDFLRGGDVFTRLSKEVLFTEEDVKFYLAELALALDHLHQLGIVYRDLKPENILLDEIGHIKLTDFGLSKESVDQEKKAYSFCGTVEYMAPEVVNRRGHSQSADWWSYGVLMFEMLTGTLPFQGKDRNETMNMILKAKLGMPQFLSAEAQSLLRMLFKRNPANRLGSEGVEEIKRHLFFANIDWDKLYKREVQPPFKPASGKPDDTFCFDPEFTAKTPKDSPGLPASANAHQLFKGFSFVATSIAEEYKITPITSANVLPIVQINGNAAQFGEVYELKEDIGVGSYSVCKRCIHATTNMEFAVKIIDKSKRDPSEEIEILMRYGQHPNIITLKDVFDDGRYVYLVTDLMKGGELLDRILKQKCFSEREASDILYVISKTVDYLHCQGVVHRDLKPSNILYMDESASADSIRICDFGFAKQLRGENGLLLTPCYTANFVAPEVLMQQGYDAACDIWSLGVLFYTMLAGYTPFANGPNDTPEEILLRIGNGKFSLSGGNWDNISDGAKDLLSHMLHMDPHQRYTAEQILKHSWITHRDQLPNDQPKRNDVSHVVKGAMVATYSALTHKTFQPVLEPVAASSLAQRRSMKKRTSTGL
Description: as §2, §3, §1

[5] = Colony forming unit hematopoietic stem cell assay; type: cell-based, human; details: human, CD34+ cells from human cord blood or peripheral blood; at 3.8 uM; read-out: cells viable in the HSC assay
Description: The hematopoietic colony forming cell assay was conducted based on a protocol outlined by StemCell Technologies. […] Following the addition of CD34^+ cells isolated from human cord blood or peripheral blood (StemCell Technologies) at a final concentration of 5×10^2 cells per dish, the tubes were vortexed and allowed to stand for 5 minutes at room temperature. Next, the MethoCult mixtures were dispensed into 35 mm dishes (Corning Incorporated) through blunt end needles (StemCell Technologies) and 5 ml syringes (BD Biosciences) at a volume of 1.1 ml per dish. The medium was evenly distributed across the surface of each dish by gentle tilting and rotation. The dishes were then placed in a 100 mm culture dish (Grenier Bio-One) containing additional 35 mm dishes with sterile water to maintain humidity. The culture dish was then placed at 37° C. in a humidified incubator containing 5% CO2 for 13 days. The number of myeloid and erythroid derived colonies in both the treated and control dishes were counted and compared.

[6] = Solubility assessment at 20 mg/ml; type: physicochemical; details: for 20 mg/ml Solubility: dissolved in DMSO, diluted in DMEM
Description: Solubility is an important property for therapeutic drug candidates. Poor solubility can lead to low bioavailability resulting in suboptimal drug delivery. It can also prevent the evaluation of test agents in animals because the concentration(s) needed to achieve the desired effect cannot be achieved to poor solubility. For solubility assessments, small molecules targeting RSK were compared. For these assessments, 100 mM solutions of the compounds dissolved in DMSO were diluted in DMEM growth media (Life Technologies) supplemented with fetal bovine serum (FBS, Life Technologies) and 100 units/ml penicillin and 100 units/ml streptomycin (Life Technologies) to make 20 mg/ml solutions. Once diluted, the solutions were vortexed and examined for the formation of precipitates. […] For Compound 26, a 100 mM solution of the compound dissolved in DMSO was diluted in phosphate buffered saline (Life Technologies) to make a 20 mg/ml solution. The stock of […] was chosen because this is the upper end of what would be required to dose mice for a range of studies including MTD, PK, PD and efficacy. The pH of this solution was determined to be 2, as previously described. […] At high concentrations some RSK inhibitors were highly soluble while others were not. Compound 0 is (R)—N-(1-benzyl-1H-pyrazol-4-yl)-9-methyl-6-oxo-6,7,8,9-tetrahydropyrido[3′,2′:4,5]pyrrolo[1,2-a]pyrazine-2-carboxamide. Compound 0 was not soluble, whereas Compounds 18, 20, 21, 25 and 26 were soluble under the same conditions (Table 5).

[7] = system: HLA-DRA mRNA; experiment: Immuno-oncology: HLA-DRA mRNA expression; type: cell-based, Human; details: MDA-MB-231 and JIMT-1 cells; Compound 16 2 or 4 uM, Compound 18 1, 2, or 4 uM
Description: (§4) A key feature of cancer is low immunogenicity. This can occur by several mechanisms that allow the cells to escape immune recognition. […] HLA-DRA is a member of MHC-II genes and CIITA is the master regulator of MHC II transcription. Thus it was surprising that CIITA, which would be expected to regulate MHC II gene expression, was not altered by RSK inhibition. […] HLA-DRA is important for immune recognition while PD-L1 is involved in immune checkpoints.

[8] = system: CIITA mRNA; experiment: Immuno-oncology: CIITA mRNA expression; type: cell-based, Human; details: MDA-MB-231 and JIMT-1 cells; Compound 16 2 or 4 uM, Compound 18 1, 2, or 4 uM
Description: as §4

[9] = system: CD274, the gene that encodes PD-L1; experiment: Immuno-oncology: CD274 expression in MDA-MB-231 cells; type: cell-based, Human; details: Compound 16 2 or 4 uM, Compound 18 1, 2 or 4 uM
Description: as §4

[10] = system: CD274, the gene that encodes PD-L1; experiment: Immuno-oncology: CD274 expression in JIMT-1 cells; type: cell-based, Human; details: 1-20 uM
Description: as §4

[11] = system: phosphorylated Y-box binding protein-1 (YB-1) at serine 102 (P—YB-1S102); experiment: Immunoblotting of phosphorylated YB-1 in MDA-MB-231 cells
Description: Following desired experimental conditions, breast cancer cell lines grown and treated in 6 well plates or 100 mm culture dishes (Grenier Bio-One) were placed on ice and the supernatant from each well was removed and the cells were washed in cold PBS. Following removal of PBS, cells were exposed to radioimmunoprecipitation assay (RIPA) buffer (50 mM Tris-HCl (pH 8), 150 mM NaCl, 1% NP-40, 0.5% sodium deoxycholate, 0.1% SDS; Fisher Scientific) supplemented with 1% phosphatase inhibitor (Fisher Scientific) and 1% protease inhibitor (Fisher Scientific) for 10 minutes. Samples were transferred to eppendorf tubes, vortexed and then centrifuged at 14 000 rpm for 10 minutes. Supernatants were collected as whole cell lysates. For mouse tumour tissues, each sample was place in a 35 mm culture dish with complete RIPA lysis buffer. The samples were diced in the buffer on ice with a sterile scalpel (VWR) and the buffer and tissue were transferred to an eppendorf tube. The samples were left on ice for 10 minutes with periodic vortexing every 2 to 3 minutes. The samples were then transferred to a Qiashredder (Qiagen) and centrifuged at 14 000 rpm for 2 minutes. The flow through was transferred to a new eppendorf tube and the samples were centrifuged again at 14 000 rpm for 5 minutes. Supernatants were collected as whole cell lysates.
For the majority of experiments in this study, 30 μg of protein per well was loaded. Samples were then resolved on SDS-PAGE (polyacrylamide gel electrophoresis) using various percentages of acrylamide gels (8%-12%), depending on the proteins of interest. […] For certain immunoblots, bands of proteins of interest were scanned and band intensity ratios were determined by densitometric analysis (ImageJ). […] To assess whether cells are actively undergoing cell death, the activity of poly ADP ribose polymerase (PARP) (1:1000 CST) was also measured using the immunoblotting method.

[12] = system: All cell lines of Tables 6A and 6B; experiment: Monolayer growth inhibition, Alamar blue, range over all cell lines; type: cell-based; details: 120 h, read-out: IC50 Values - Alamar Blue (5 Days), Range
Description: 1×10^3 cells per well were seeded for a final volume of 200 μl per well and plates were incubated for 5 days at 37° C. in a humidified incubator with 5% CO2. Following the incubation period, cell survival was quantified by Alamar blue assay (Life Technologies). Briefly, media from each well was replaced with 100 μl of phosphate buffer saline (PBS, Life Technologies) and cells were incubated with 5% Alamar blue, which incorporates a propriety redox indicator that changes colour in response to metabolic activity, for up to 2 hours. During this period of incubation, the absorbance at 570 nm and 600 nm was measured at various time points, depending on the cell line or sample. Percent survival was calculated by comparing the absorbance ratio of the test well to the control well multiplied by 100%, as indicated in the following formula:

[13] = system: All cell lines of Tables 7A and 7B; experiment: Monolayer growth inhibition, crystal violet, range over all cell lines; type: cell-based; details: 120 h, read-out: IC50 Values - Crystal Violet (5 Days), Range

RSK2, sequence (P51812 whole entry): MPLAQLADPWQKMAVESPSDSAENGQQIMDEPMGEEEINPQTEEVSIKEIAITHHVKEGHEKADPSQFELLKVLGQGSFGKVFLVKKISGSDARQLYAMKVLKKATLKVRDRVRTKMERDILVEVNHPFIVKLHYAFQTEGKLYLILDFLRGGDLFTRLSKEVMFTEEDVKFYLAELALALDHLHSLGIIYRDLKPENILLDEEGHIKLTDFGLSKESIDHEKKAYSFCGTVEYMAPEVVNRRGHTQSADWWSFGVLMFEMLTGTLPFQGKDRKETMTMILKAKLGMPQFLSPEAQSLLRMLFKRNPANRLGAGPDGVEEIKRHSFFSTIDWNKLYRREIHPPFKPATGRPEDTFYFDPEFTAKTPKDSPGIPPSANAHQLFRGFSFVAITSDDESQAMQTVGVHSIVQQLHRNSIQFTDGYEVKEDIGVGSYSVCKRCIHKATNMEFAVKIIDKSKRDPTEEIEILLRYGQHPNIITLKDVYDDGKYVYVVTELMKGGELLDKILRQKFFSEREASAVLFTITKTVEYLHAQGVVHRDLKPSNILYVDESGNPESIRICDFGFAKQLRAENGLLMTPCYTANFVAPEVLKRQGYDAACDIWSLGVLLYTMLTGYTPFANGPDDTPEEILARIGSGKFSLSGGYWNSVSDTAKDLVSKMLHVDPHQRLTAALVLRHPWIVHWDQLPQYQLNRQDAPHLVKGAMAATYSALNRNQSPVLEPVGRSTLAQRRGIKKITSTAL

C[C@@H]1CNC(=O)c2cc3ccc(NC(=O)c4cnn(Cc5ccccc5)c4)nc3n21 [Compound 15, (R)-1-benzyl-N-(9-methyl-6-oxo-6,7,8,9-tetrahydropyrido[3′,2′:4,5]pyrrolo[1,2-a]pyrazin-2-yl)-1H-pyrazole-4-carboxamide]
IC50 [1]: 94 nM
IC50 [2]: 23.6 nM
IC50 [3]: 6 nM
IC50 [4]: 8 nM
viability at 13 days, […] [5]: 100%

C[C@@H]1CNC(=O)c2cc3ccc(C(=O)Nc4cnn(Cc5ccc(N)cc5)c4)nc3n21 [Compound 18, (R)—N-(1-(4-aminobenzyl)-1H-pyrazol-4-yl)-9-methyl-6-oxo-6,7,8,9-tetrahydropyrido[3′,2′:4,5]pyrrolo[1,2-a]pyrazine-2-carboxamide]
IC50 [1]: 12 nM
IC50 [2]: 2 nM
IC50 [3]: 1.7 nM
IC50 [4]: 0.3 nM
pH ([6]; 20 mg/ml solution, DMSO diluted in DMEM): 9
20 mg/ml Solubility [6]: Soluble
levels of HLA-DRA mRNA [7]: elevated
mRNA expression of CIITA [8]: little effect
levels of CD274 [9]: reduced
CD274 [10]: inhibited
loss of P—YB-1 ([11]; MDA-MB-231, 0.01, 0.1, 1, or 10 uM, 24 hrs): dose dependent loss
loss of P—YB-1 ([11]; MDA-MB-231, 0.01-1 uM, 96 hrs): dose dependent loss

C[C@@H]1CNC(=O)c2cc3ccc(C(=O)Nc4cnn(Cc5ccc(F)cc5F)c4)nc3n21 [Compound 23, (R)—N-(1-(2,4-difluorobenzyl)-1H-pyrazol-4-yl)-9-methyl-6-oxo-6,7,8,9-tetrahydropyrido[3′,2′:4,5]pyrrolo[1,2-a]pyrazine-2-carboxamide]
20 mg/ml Solubility [6]: Precipitate
IC50 [12]: 1100 to 19800 nM
IC50 [13]: 1100 to 15000 nM
